From patent publication US20130324564A1, “POLYMORPHS OF (S)-1-(4,4,6,6,6-PENTADEUTERO-5-HYDROXYHEXYL)-3-7-DIMETHYL-1H-PURINE-2,6(3H,7H)-DIONE” (CONCERT PHARMACEUTICALS, INC., priority 2010, published 2013)

Key:
[1] = Solid-form stability of Form 1 under humidity, pressure and grinding stress; type: physicochemical
[2] = Relative thermodynamic stability and interconversion of polymorphs; type: physicochemical

SMILES	form stability / form change ([1]; exposed to 0.35 GPa pressure)	form stability / form change ([1]; exposed to 97% relative humidity for up to 12 days)	form stability / form change ([1]; ground at ambient temperature (30Hz for 2hrs))	form stability / form change ([1]; ground at −196° C. (25Hz for 0.5hrs))	relative thermodynamic stability ([2]; compared with the other polymorphs)	form conversion ([2]; upon air drying, storage and/or slurrying at room temperature)
[2H]C([2H])([2H])[C@H](O)C([2H])([2H])CCCn1c(=O)c2c(ncn2C)n(C)c1=O [Form 1, (S)-1-(4,4,6,6,6-pentadeutero-5-hydroxyhexyl)-3,7-dimethyl-1H-purine-2,6(3H,7H)-dione]	stable and did not undergo a form change	stable and did not undergo a form change	stable and did not undergo a form change	stable and did not undergo a form change	more thermodynamically stable than any of Forms 2, 3 and 4	–
[2H]C([2H])([2H])[C@H](O)C([2H])([2H])CCCn1c(=O)c2c(ncn2C)n(C)c1=O [Form 2, (S)-1-(4,4,6,6,6-pentadeutero-5-hydroxyhexyl)-3,7-dimethyl-1H-purine-2,6(3H,7H)-dione]	–	–	–	–	–	convert to Form 1
